Test results from paper PMC4490784, “Compensatory induction of MYC expression by sustained CDK9 inhibition via a BRD4-dependent mechanism” (eLife, 2015).

Columns and labels:
[1] = target: T1, ABL1(M351T)-phosphorylated (Homo sapiens, UniProt P00519, M351T); experiment: KINOMEscan binding assay; conditions: 1 µM i-CDK9; read-out: % Retention on Solid Support
T1 construct: purchased DiscoveRx KINOMEscan
Protocol: (§1) As there are no commercial or in-house kinase assays available for CDK3, CDK5, CDK11 and CDK13, the inhibitory abilities of i-CDK9 toward these CDKs were thus evaluated in the DiscoveRx KINOMEscan assay, which is based on a proprietary active site-directed competition-binding platform ([Fabian et al., 2005]).
(§2) The inhibitory activity of i-CDK9 for CDK1-CycB (Upstate/Millipore), CDK2-CycA (Invitrogen), CDK4-CycD1 (Novartis), CDK7-CycH-MAT1 (Invitrogen), and CDK9-CycT1 (Invitrogen) was assessed in the AlphaScreen (PerkinElmer, Inc)-based kinase assay developed at Novartis. Briefly, each CDK–cyclin pair was pre-incubated with i-CDK9 for 15 min, followed by addition of kinase substrates (ELK for CDK1 and CDK2, RB for CDK4, and CDK7tide for CDK7 and CDK9). The mixture was incubated at room temperature for additional 4–5 hr. The reaction was stopped and read on Envision (PerkinElmer, Inc). Selectivity against a large panel of over 400 kinases was evaluated using the KINOMEscan platform (DiscoveRx, CA) employing a proprietary active site-directed competition binding assay ([Fabian et al., 2005]). The assay was conducted at two different concentrations of i-CDK9 (1 and 10 µM) by DiscoveRx.

BRSK1 = target: T2, BRSK1 (Homo sapiens, UniProt Q8TDC3); experiment: KINOMEscan binding assay; conditions: read-out: % Retention on Solid Support
T2 construct: purchased DiscoveRx KINOMEscan
Protocol: as §1, §2

CAMK2D = target: T3, CAMK2D (Homo sapiens, UniProt Q13557); experiment: KINOMEscan binding assay; conditions: read-out: % Retention on Solid Support
T3 construct: purchased DiscoveRx KINOMEscan
Protocol: as §1, §2

CDKL2 = target: T4, CDKL2 (Homo sapiens, UniProt Q92772); experiment: KINOMEscan binding assay; conditions: read-out: % Retention on Solid Support
T4 construct: purchased DiscoveRx KINOMEscan
Protocol: as §1, §2

EPHA3 = target: T5, EPHA3 (Homo sapiens, UniProt P29320); experiment: KINOMEscan binding assay; conditions: read-out: % Retention on Solid Support
T5 construct: purchased DiscoveRx KINOMEscan
Protocol: as §1, §2

EPHB2 = target: T6, EPHB2 (Homo sapiens, UniProt P29323); experiment: KINOMEscan binding assay
T6 construct: purchased DiscoveRx KINOMEscan
Protocol: as §1, §2

ERBB4 = target: T7, ERBB4 (Homo sapiens, UniProt Q15303); experiment: KINOMEscan binding assay; conditions: read-out: % Retention on Solid Support
T7 construct: purchased DiscoveRx KINOMEscan
Protocol: as §1, §2

ERK5 = target: T8, ERK5 (Homo sapiens, UniProt Q13164); experiment: KINOMEscan binding assay; conditions: read-out: % Retention on Solid Support
T8 construct: purchased DiscoveRx KINOMEscan
Protocol: as §1, §2

FLT1 = target: T9, FLT1 (Homo sapiens, UniProt P17948); experiment: KINOMEscan binding assay; conditions: read-out: % Retention on Solid Support
T9 construct: purchased DiscoveRx KINOMEscan
Protocol: as §1, §2

HPK1 = target: T10, HPK1 (Homo sapiens, UniProt Q92918); experiment: KINOMEscan binding assay; conditions: read-out: % Retention on Solid Support
T10 construct: purchased DiscoveRx KINOMEscan
Protocol: as §1, §2

ICK = target: T11, ICK (Homo sapiens, UniProt Q9UPZ9); experiment: KINOMEscan binding assay; conditions: read-out: % Retention on Solid Support
T11 construct: purchased DiscoveRx KINOMEscan
Protocol: as §1, §2

JNK2 = target: T12, JNK2 (Homo sapiens, UniProt P45984); experiment: KINOMEscan binding assay
T12 construct: purchased DiscoveRx KINOMEscan
Protocol: as §1, §2

KIT = target: T13, KIT (Homo sapiens, UniProt P10721); experiment: KINOMEscan binding assay; conditions: read-out: % Retention on Solid Support
T13 construct: purchased DiscoveRx KINOMEscan
Protocol: as §1, §2

KIT(D816V) = target: T14, KIT(D816V) (Homo sapiens, UniProt P10721, D816V); experiment: KINOMEscan binding assay; conditions: read-out: % Retention on Solid Support
T14 construct: purchased DiscoveRx KINOMEscan
Protocol: as §1, §2

NEK5 = target: T15, NEK5 (Homo sapiens, UniProt Q6P3R8); experiment: KINOMEscan binding assay; conditions: read-out: % Retention on Solid Support
T15 construct: purchased DiscoveRx KINOMEscan
Protocol: as §1, §2

PIK3CD = target: T16, PIK3CD (Homo sapiens, UniProt O00329); experiment: KINOMEscan binding assay; conditions: read-out: % Retention on Solid Support
T16 construct: purchased DiscoveRx KINOMEscan
Protocol: as §1, §2

PIP5K1C = target: T17, PIP5K1C (Homo sapiens, UniProt O60331); experiment: KINOMEscan binding assay; conditions: 1 µM i-CDK9
T17 construct: purchased DiscoveRx KINOMEscan
Protocol: as §1, §2

PIP5K2B = target: T18, PIP5K2B (Homo sapiens, UniProt P78356); experiment: KINOMEscan binding assay; conditions: read-out: % Retention on Solid Support
T18 construct: purchased DiscoveRx KINOMEscan
Protocol: as §1, §2

PLK2 = target: T19, PLK2 (Homo sapiens, UniProt Q9NYY3); experiment: KINOMEscan binding assay
T19 construct: purchased DiscoveRx KINOMEscan
Protocol: as §1, §2

PLK4 = target: T20, PLK4 (Homo sapiens, UniProt O00444); experiment: KINOMEscan binding assay; conditions: read-out: % Retention on Solid Support
T20 construct: purchased DiscoveRx KINOMEscan
Protocol: as §1, §2

[2] = target: T21, RSK3(Kin.Dom.1-N-terminal) (Homo sapiens, UniProt Q15349); experiment: KINOMEscan binding assay; conditions: read-out: % Retention on Solid Support
T21 construct: RSK3(Kin.Dom.1-N-terminal); purchased DiscoveRx KINOMEscan
Protocol: as §1, §2

SLK = target: T22, SLK (Homo sapiens, UniProt Q9H2G2); experiment: KINOMEscan binding assay; conditions: read-out: % Retention on Solid Support
T22 construct: purchased DiscoveRx KINOMEscan
Protocol: as §1, §2

TAOK2 = target: T23, TAOK2 (Homo sapiens, UniProt Q9UL54); experiment: KINOMEscan binding assay; conditions: read-out: % Retention on Solid Support
T23 construct: purchased DiscoveRx KINOMEscan
Protocol: as §1, §2

TLK2 = target: T24, TLK2 (Homo sapiens, UniProt Q86UE8); experiment: KINOMEscan binding assay; conditions: read-out: % Retention on Solid Support
T24 construct: purchased DiscoveRx KINOMEscan
Protocol: as §1, §2

[3] = target: T25, JAK2(JH1domain-catalytic) (Homo sapiens, UniProt O60674); experiment: biochemical binding or enzymatic assay; set-up: JAK2(JH1domain-catalytic); conditions: Novartis
Protocol: Finally, the selectivity profile of i-CDK9 toward other non-CDK kinases was also assessed using the KINOMEscan platform. […] Except for CLK4, for which no suitable assay was available, the rest of the kinases plus a selected group of others were re-examined for the concentration-dependent effect of i-CDK9 in either functional kinase assays or binding assays. […] Indeed, it has recently been reported that DYRK1A acts as a Pol II CTD Kinase at its target gene promoters ([Di Vona et al., 2015]).

[4] = target: T25, JAK2(JH1domain-catalytic); experiment: KINOMEscan binding assay; set-up: JAK2(JH1domain-catalytic); purchased DiscoveRx KINOMEscan
Protocol: as §1, §2
Target sequence in this assay (O60674 840-1132 limits assumed): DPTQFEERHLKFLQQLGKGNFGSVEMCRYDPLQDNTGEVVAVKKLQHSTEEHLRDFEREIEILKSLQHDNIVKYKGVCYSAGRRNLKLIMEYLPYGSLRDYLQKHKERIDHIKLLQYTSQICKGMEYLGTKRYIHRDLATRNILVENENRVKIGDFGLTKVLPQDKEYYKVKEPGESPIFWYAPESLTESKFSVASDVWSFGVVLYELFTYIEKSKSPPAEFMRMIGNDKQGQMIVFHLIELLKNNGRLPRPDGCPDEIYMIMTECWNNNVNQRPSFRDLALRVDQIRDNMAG

T6 sequence (P29323 19-1055): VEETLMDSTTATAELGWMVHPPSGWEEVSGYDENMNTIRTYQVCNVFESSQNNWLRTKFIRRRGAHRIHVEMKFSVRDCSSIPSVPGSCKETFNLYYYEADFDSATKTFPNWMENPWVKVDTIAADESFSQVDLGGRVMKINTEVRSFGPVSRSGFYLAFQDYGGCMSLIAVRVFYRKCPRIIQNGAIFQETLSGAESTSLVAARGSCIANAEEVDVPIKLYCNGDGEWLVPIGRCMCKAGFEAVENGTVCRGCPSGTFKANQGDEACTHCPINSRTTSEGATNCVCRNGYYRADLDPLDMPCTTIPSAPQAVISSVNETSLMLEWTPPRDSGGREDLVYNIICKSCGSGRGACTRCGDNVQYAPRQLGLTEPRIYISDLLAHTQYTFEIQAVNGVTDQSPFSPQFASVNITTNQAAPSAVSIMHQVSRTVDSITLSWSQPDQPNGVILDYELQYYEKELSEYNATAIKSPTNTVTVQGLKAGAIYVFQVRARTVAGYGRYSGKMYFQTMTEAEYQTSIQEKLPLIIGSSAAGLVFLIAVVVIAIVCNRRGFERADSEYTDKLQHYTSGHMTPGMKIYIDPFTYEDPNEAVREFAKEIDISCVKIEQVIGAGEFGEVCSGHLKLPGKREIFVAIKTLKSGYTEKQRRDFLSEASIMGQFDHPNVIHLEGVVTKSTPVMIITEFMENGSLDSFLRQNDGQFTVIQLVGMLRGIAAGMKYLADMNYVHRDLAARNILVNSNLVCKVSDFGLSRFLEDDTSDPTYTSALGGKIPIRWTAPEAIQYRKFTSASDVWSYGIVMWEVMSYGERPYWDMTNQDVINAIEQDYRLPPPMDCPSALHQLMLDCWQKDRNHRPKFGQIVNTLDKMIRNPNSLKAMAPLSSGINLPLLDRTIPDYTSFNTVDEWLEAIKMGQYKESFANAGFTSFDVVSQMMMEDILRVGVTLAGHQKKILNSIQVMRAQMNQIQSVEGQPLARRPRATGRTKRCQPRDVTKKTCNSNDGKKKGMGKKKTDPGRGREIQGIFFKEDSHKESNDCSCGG
T10 sequence (Q92918 whole entry): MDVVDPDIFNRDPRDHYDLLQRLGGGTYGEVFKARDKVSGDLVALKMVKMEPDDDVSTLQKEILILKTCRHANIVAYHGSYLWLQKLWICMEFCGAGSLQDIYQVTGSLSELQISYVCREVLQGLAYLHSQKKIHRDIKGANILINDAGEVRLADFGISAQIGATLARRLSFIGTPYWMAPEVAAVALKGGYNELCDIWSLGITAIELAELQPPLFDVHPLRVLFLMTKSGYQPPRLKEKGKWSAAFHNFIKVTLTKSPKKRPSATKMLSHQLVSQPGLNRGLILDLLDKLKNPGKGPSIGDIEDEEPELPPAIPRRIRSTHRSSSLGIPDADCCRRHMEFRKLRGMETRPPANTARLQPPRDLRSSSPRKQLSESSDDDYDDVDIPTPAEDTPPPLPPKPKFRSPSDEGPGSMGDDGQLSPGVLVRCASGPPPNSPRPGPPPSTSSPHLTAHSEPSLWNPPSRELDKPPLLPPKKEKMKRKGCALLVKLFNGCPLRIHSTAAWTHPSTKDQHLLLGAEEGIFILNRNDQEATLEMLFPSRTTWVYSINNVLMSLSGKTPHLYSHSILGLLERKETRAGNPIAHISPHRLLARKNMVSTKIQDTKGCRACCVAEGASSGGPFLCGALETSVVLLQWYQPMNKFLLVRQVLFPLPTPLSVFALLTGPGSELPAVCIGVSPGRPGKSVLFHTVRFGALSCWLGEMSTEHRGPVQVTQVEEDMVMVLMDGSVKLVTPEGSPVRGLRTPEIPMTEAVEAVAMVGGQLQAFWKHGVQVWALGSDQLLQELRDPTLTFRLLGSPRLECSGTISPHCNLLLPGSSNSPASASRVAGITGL
T3 sequence (Q13557 whole entry): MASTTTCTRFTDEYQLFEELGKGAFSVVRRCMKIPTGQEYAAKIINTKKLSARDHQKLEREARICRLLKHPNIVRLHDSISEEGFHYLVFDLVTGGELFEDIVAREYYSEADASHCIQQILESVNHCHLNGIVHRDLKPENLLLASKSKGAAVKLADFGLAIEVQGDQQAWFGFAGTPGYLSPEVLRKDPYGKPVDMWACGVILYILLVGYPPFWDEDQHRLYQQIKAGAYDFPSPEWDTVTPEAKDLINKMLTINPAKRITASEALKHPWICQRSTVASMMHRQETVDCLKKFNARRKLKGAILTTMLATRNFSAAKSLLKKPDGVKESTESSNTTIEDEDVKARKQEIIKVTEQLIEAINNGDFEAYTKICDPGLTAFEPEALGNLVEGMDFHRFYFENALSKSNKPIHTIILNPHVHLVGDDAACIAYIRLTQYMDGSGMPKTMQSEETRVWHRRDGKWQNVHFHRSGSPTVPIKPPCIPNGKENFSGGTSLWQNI
T21 sequence (Q15349 1-388 limits assumed): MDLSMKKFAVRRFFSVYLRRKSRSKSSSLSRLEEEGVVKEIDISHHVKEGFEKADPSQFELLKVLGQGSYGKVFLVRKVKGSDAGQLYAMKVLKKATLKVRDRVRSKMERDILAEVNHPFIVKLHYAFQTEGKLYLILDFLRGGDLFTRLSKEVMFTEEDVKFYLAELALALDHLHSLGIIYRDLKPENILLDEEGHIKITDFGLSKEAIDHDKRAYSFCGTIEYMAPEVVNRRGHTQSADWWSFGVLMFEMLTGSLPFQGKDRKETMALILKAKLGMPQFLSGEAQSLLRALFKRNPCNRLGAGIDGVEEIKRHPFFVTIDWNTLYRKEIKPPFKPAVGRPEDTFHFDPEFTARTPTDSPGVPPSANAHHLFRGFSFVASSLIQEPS
T2 sequence (Q8TDC3 whole entry): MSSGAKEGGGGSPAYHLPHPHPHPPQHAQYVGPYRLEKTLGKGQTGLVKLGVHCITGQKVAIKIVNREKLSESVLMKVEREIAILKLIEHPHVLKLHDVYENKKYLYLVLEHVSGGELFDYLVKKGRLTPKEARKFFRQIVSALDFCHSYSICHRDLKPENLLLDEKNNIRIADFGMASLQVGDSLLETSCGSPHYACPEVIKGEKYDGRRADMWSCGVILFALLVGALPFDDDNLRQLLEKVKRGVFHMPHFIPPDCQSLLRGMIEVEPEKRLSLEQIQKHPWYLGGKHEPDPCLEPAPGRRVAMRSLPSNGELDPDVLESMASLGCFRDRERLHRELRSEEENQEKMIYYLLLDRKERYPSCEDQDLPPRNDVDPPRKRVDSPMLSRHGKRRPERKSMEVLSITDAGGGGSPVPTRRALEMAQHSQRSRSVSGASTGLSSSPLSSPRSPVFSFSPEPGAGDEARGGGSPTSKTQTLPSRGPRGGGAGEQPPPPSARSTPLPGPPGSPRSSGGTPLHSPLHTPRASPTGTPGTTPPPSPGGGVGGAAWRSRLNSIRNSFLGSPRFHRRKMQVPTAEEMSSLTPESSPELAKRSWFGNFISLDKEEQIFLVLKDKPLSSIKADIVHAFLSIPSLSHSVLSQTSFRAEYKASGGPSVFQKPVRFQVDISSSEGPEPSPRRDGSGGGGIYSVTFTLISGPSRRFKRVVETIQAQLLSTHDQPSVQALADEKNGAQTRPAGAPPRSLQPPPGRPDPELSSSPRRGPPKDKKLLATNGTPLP
T18 sequence (P78356 whole entry): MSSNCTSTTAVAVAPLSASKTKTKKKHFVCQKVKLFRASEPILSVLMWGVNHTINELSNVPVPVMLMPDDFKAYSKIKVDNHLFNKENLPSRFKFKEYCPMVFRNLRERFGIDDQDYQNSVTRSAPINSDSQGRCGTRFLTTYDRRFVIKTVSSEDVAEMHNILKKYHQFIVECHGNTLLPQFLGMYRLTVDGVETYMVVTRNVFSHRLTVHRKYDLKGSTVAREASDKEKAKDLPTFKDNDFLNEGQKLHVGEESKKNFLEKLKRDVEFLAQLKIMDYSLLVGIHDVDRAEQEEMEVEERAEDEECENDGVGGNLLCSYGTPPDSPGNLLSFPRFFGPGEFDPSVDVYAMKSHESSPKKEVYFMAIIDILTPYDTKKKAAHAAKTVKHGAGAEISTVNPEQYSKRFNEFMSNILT
T24 sequence (Q86UE8 whole entry): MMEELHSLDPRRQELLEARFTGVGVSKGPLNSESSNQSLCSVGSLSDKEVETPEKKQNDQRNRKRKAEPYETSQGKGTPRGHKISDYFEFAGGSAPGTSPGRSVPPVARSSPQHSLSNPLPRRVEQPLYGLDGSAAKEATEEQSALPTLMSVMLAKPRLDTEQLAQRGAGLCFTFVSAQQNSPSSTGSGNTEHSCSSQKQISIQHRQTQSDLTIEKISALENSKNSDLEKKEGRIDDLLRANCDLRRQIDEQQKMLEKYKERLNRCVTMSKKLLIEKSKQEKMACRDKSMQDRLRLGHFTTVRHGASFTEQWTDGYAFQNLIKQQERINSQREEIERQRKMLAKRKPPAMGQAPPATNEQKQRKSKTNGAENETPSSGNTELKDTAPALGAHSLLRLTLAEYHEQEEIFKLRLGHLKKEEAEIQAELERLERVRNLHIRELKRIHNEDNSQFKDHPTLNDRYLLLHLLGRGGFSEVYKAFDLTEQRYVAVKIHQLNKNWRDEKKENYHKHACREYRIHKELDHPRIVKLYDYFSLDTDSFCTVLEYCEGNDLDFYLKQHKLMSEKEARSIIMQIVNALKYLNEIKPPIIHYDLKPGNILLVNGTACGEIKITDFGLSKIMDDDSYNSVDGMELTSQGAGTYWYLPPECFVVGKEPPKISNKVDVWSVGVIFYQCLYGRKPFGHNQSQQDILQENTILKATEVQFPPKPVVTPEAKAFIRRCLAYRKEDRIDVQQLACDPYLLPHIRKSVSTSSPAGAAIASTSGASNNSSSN

SMILES: N[C@H]1CC[C@H](Nc2cc(-c3cccc(NCc4cccc(F)c4)n3)c(Cl)cn2)CC1 [i-CDK9, N2′-(trans-4-aminocyclohexyl)-5′-chloro-N6-(3-fluorobenzyl)-2,4′-bipyridine-2′,6-diamine]
- remaining binding at 1 µM [1]: 96%
- remaining binding at 1 µM (BRSK1; 1 µM i-CDK9): 100%
- remaining binding at 10 µM (BRSK1; 10 µM i-CDK9): 89%
- remaining binding at 1 µM (CAMK2D; 1 µM i-CDK9): 100%
- remaining binding at 10 µM (CAMK2D; 10 µM i-CDK9): 100%
- remaining binding at 1 µM (CDKL2; 1 µM i-CDK9): 80%
- remaining binding at 10 µM (CDKL2; 10 µM i-CDK9): 14%
- remaining binding at 1 µM (EPHA3; 1 µM i-CDK9): 85%
- remaining binding at 10 µM (EPHA3; 10 µM i-CDK9): 100%
- % Retention on Solid Support (EPHB2; 1 µM i-CDK9): 100%
- % Retention on Solid Support (EPHB2; 10 µM i-CDK9): 66%
- remaining binding at 1 µM (ERBB4; 1 µM i-CDK9): 100%
- remaining binding at 10 µM (ERBB4; 10 µM i-CDK9): 100%
- remaining binding at 1 µM (ERK5; 1 µM i-CDK9): 100%
- remaining binding at 10 µM (ERK5; 10 µM i-CDK9): 92%
- remaining binding at 1 µM (FLT1; 1 µM i-CDK9): 100%
- remaining binding at 10 µM (FLT1; 10 µM i-CDK9): 81%
- remaining binding at 1 µM (HPK1; 1 µM i-CDK9): 86%
- remaining binding at 10 µM (HPK1; 10 µM i-CDK9): 100%
- remaining binding at 1 µM (ICK; 1 µM i-CDK9): 85%
- remaining binding at 10 µM (ICK; 10 µM i-CDK9): 3%
- % Retention on Solid Support (JNK2; 1 µM i-CDK9): 98%
- % Retention on Solid Support (JNK2; 10 µM i-CDK9): 78%
- remaining binding at 1 µM (KIT; 1 µM i-CDK9): 91%
- remaining binding at 10 µM (KIT; 10 µM i-CDK9): 100%
- remaining binding at 1 µM (KIT(D816V); 1 µM i-CDK9): 100%
- remaining binding at 10 µM (KIT(D816V); 10 µM i-CDK9): 100%
- remaining binding at 1 µM (NEK5; 1 µM i-CDK9): 88%
- remaining binding at 10 µM (NEK5; 10 µM i-CDK9): 100%
- remaining binding at 1 µM (PIK3CD; 1 µM i-CDK9): 100%
- remaining binding at 10 µM (PIK3CD; 10 µM i-CDK9): 100%
- % Retention on Solid Support (PIP5K1C): 85%
- remaining binding at 1 µM (PIP5K2B; 1 µM i-CDK9): 100%
- remaining binding at 10 µM (PIP5K2B; 10 µM i-CDK9): 77%
- % Retention on Solid Support (PLK2; 1 µM i-CDK9): 100%
- % Retention on Solid Support (PLK2; 10 µM i-CDK9): 100%
- remaining binding at 1 µM (PLK4; 1 µM i-CDK9): 89%
- remaining binding at 10 µM (PLK4; 10 µM i-CDK9): 91%
- remaining binding at 1 µM ([2]; 1 µM i-CDK9): 100%
- remaining binding at 10 µM ([2]; 10 µM i-CDK9): 78%
- remaining binding at 1 µM (SLK; 1 µM i-CDK9): 100%
- remaining binding at 10 µM (SLK; 10 µM i-CDK9): 100%
- remaining binding at 1 µM (TAOK2; 1 µM i-CDK9): 82%
- remaining binding at 10 µM (TAOK2; 10 µM i-CDK9): 5.8%
- remaining binding at 1 µM (TLK2; 1 µM i-CDK9): 100%
- remaining binding at 10 µM (TLK2; 10 µM i-CDK9): 100%
- IC50 [3]: > 10 µM
- % Retention on Solid Support ([4]; 1 µM i-CDK9): 76%
- % Retention on Solid Support ([4]; 10 µM i-CDK9): 84%
